Source: patent US20210395239A1 (Hoffmann-La Roche Inc., priority 2018, published 2021)

Molecular target: T1, human TLR7 (Homo sapiens, UniProt Q9NYK1)
T1 construct: host or cells: HEK293 (HEK-Blue hTLR7)
T1 sequence (Q9NYK1 27-1049): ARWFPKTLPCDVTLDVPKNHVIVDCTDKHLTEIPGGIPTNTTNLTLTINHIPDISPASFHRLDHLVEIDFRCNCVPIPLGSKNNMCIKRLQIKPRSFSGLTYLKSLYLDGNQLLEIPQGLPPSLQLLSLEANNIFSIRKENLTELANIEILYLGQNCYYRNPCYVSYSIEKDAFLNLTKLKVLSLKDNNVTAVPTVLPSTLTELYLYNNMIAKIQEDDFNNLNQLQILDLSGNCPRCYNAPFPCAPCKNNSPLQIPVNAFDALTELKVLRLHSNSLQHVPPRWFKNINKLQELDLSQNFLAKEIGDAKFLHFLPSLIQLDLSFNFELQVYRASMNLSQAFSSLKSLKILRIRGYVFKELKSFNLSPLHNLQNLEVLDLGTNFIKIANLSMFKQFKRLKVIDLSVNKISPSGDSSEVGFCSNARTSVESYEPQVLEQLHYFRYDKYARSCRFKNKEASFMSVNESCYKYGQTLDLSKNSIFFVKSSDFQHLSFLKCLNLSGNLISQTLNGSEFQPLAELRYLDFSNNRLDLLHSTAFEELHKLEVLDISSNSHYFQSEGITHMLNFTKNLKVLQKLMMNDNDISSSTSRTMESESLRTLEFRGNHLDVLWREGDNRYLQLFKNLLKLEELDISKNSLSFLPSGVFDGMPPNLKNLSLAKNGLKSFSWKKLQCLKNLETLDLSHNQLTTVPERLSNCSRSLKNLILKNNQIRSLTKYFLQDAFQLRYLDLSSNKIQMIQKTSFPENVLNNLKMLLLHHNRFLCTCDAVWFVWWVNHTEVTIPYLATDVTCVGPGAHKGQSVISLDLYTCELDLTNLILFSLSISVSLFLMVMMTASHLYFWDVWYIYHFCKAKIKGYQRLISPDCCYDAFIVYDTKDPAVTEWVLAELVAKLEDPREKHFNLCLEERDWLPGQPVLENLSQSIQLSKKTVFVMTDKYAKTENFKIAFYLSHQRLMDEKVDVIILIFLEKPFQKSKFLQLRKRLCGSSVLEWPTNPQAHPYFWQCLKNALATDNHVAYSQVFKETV
Assay: HEK293-Blue-hTLR-7 cells assay (SEAP reporter, R848 stimulation)
Type: cell-based
Conditions: HEK293-Blue-hTLR7 cells, R848, 20 hrs; read-out: HEK/hTLR7 IC50
Summary of the method: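 HEK293-Blue-hTLR7 cells (NF-κB/AP-1-driven SEAP reporter) were stimulated with R848 alongside serially diluted compound at 1% final DMSO for 20 h at 37 °C. Supernatant SEAP was then developed with QUANTI-Blue for 2 h at 37 °C and absorbance read at 620–655 nm; antagonism is measured as reduced reporter signal.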

IC50 [nM] | Compound
31 | C[C@@H]1CN(c2ccc(C#N)c3ncccc23)C[C@H](CN2CCN(c3ncc(N4CCNCC4)cn3)CC2)O1 [Example 17, 5-[(2R,6S)-2-methyl-6-[[4-(5-piperazin-1-ylpyrimidin-2-yl)piperazin-1-yl]methyl]morpholin-4-yl]quinoline-8-carbonitrile]
34 | C[C@@H]1CN(c2ccc(C#N)c3ncccc23)C[C@H](CN2CCN(c3cncc(N4CCNCC4)c3)CC2)O1 [Example 7, 5-[(2R,6S)-2-methyl-6-[[4-(5-piperazin-1-yl-3-pyridyl)piperazin-1-yl]methyl]morpholin-4-yl]quinoline-8-carbonitrile]
39 | C[C@@H]1CN(c2ccc(C#N)n3ncc(F)c23)C[C@H](CN2CCN(c3ccc(C4(C)CNCCO4)cc3)CC2)O1 (stereo partly drawn) [Example 185, 3-fluoro-4-[(2R,6S)-2-methyl-6-[[4-[4-(2-methylmorpholin-2-yl)phenyl]piperazin-1-yl]methyl]morpholin-4-yl]pyrazolo[1,5-a]pyridine-7-carbonitrile]
50 | C[C@@H]1CN(c2ccc(C#N)c3ncccc23)C[C@H](CN2CCN(c3ccc(N4CCNCC4)cn3)CC2)O1 [Example 8, 5-[(2R,6S)-2-methyl-6-[[4-(5-piperazin-1-yl-2-pyridyl)piperazin-1-yl]methyl]morpholin-4-yl]quinoline-8-carbonitrile]
18 | Cc1nc(N2CCNCC2)nc(N2CCN(C[C@H]3CN(c4ccc(C#N)c5ncccc45)C[C@@H](C)O3)CC2)c1C [Example 46, 5-[(2S,6R)-2-[[4-(5,6-dimethyl-2-piperazin-1-yl-pyrimidin-4-yl)piperazin-1-yl]methyl]-6-methyl-morpholin-4-yl]quinoline-8-carbonitrile]
18 | C[C@@H]1CN(c2ccc(C#N)c3ncccc23)C[C@H](CN2CCN(c3ccnc(N4CCN(C(=O)[C@@H]5CCCN5)CC4)n3)CC2)O1 [Example 31, 5-[(2R,6S)-2-methyl-6-[[4-[2-[4-[(2S)-pyrrolidine-2-carbonyl]piperazin-1-yl]pyrimidin-4-yl]piperazin-1-yl]methyl]morpholin-4-yl]quinoline-8-carbonitrile]
17 | Cc1cc(N2CCN(C[C@H]3CN(c4ccc(C#N)c5ncccc45)C[C@@H](C)O3)CC2)nc(N2CCNCC(O)C2)n1 (stereo partly drawn) [Example 66, 5-[(2S,6R)-2-[[4-[2-(6-hydroxy-1,4-diazepan-1-yl)-6-methyl-pyrimidin-4-yl]piperazin-1-yl]methyl]-6-methyl-morpholin-4-yl]quinoline-8-carbonitrile]
70 | C[C@@H]1CN(c2ccc(C#N)c3ncccc23)C[C@H](CN2CCN(c3cccc(N[C@H]4CNC[C@H]4F)n3)CC2)O1 [Example 37, 5-[(2S,6R)-2-[[4-[6-[[(3S,4R)-4-fluoropyrrolidin-3-yl]amino]-2-pyridyl]piperazin-1-yl]methyl]-6-methyl-morpholin-4-yl]quinoline-8-carbonitrile]
29 | C[C@@H]1CN(c2ccc(C#N)c3ncccc23)C[C@H](CN2CCN(c3nc(N4CCNCC4)nc4ccccc34)CC2)O1 [Example 49, 5-[(2R,6S)-2-methyl-6-[[4-(2-piperazin-1-ylquinazolin-4-yl)piperazin-1-yl]methyl]morpholin-4-yl]quinoline-8-carbonitrile]
30 | C[C@@H]1CN(c2ccc(C#N)n3ncc(F)c23)C[C@H](CN2CCN(c3ccc(N4CC5(CCN5)C4)nc3)CC2)O1 [Example 179, 4-[(2S,6R)-2-[[4-[6-(1,6-diazaspiro[3.3]heptan-6-yl)-3-pyridyl]piperazin-1-yl]methyl]-6-methyl-morpholin-4-yl]-3-fluoro-pyrazolo[1,5-a]pyridine-7-carbonitrile]
27 | Cc1cc(N2CCN(C[C@H]3CN(c4ccc(C#N)c5ncccc45)C[C@@H](C)O3)CC2)nc(NC2CNCC2C#N)n1 (stereo partly drawn) [Example 57, 5-[(2S,6R)-2-[[4-[2-[(4-cyanopyrrolidin-3-yl)amino]-6-methyl-pyrimidin-4-yl]piperazin-1-yl]methyl]-6-methyl-morpholin-4-yl]quinoline-8-carbonitrile]
7 | C[C@@H]1CN(c2ccc(C#N)c3ncccc23)C[C@H](CN2CCN(c3ccnc(N4CCNCC4)n3)CC2)O1 [Example 15, 5-[(2R,6S)-2-methyl-6-[[4-(2-piperazin-1-ylpyrimidin-4-yl)piperazin-1-yl]methyl]morpholin-4-yl]quinoline-8-carbonitrile]
9 | COc1cnc(N2CCNCC2)nc1N1CCN(C[C@H]2CN(c3ccc(C#N)c4ncccc34)C[C@@H](C)O2)CC1 [Example 48, 5-[(2S,6R)-2-[[4-(5-methoxy-2-piperazin-1-yl-pyrimidin-4-yl)piperazin-1-yl]methyl]-6-methyl-morpholin-4-yl]quinoline-8-carbonitrile]
9 | Cc1cc(N2CCNCC2)nc(N2CCN(C[C@H]3CN(c4ccc(C#N)c5ncccc45)C[C@@H](C)O3)CC2)n1 [Example 68, 5-[(2R,6S)-2-methyl-6-[[4-(4-methyl-6-piperazin-1-yl-pyrimidin-2-yl)piperazin-1-yl]methyl]morpholin-4-yl]quinoline-8-carbonitrile]
15 | Cc1cc(N2CCN(C[C@H]3CN(c4ccc(C(F)(F)F)c5nccnc45)C[C@@H](C)O3)CC2)nc(N2CCNCC2)n1 [Example 65, (2R,6S)-2-methyl-6-[[4-(6-methyl-2-piperazin-1-yl-pyrimidin-4-yl)piperazin-1-yl]methyl]-4-[8-(trifluoromethyl)quinoxalin-5-yl]morpholine]
